What follows are compounds tested on HT29 cells (assay: Inhibition of cell necrosis (CCK8 method), induced programmed necrosis of HT29 cells). Conditions: Homo sapiens, HT-29; rescue from necrosis induced by TNF-α 20 ng/mL, AT-406 1 μM, Z-VAD-FMK 20 μM; 16-20 hours; CCK-8, OD 450 nm.
Assay type: cell-based
How it was run: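 HT29 cells in McCOY's 5A with 10% FBS were pre-treated for 30 min with compound (9 fourfold steps, 25000 to 0.38 nM final, 0.25% DMSO). Necrosis was then induced with TNF-α 20 ng/mL, AT-406 1 μM and Z-VAD-FMK 20 μM for 16-20 h. Viability was read by CCK-8 OD450, normalized between uninduced and induced wells, and IC50 was curve-fitted.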

**Q.** With Cc1ccc(OC2CCC2)cc1-c1ccnc(NC(=O)c2nnc(Cc3ccccc3)[nH]2)c1 [Example 156, 5-benzyl-N-(4-(5-cyclobutoxy-2-methylphenyl)pyridin-2-yl)-4H-1,2,4-triazole-3-carboxamide] as the compound, how does the IC50 read?
**A.** 100 to 1000 nM

**Q.** Cc1ccc(OCCCC(N)=O)cc1-c1ccnc(NC(=O)c2nnc(Cc3ccccc3)[nH]2)c1 [Example 157, N-(4-(5-(4-amino-4-oxobutoxy)-2-methylphenyl)pyridin-2-yl)-5-benzyl-4H-1,2,4-triazole-3-carboxamide] was tested. Which IC50 did it give?
**A.** 100 to 1000 nM

**Q.** Which IC50 does the source give for Cc1ccc(C(N)=O)cc1-c1ccnc(NC(=O)c2nnc(Cc3ccccc3)[nH]2)c1 [Example 158, 5-benzyl-N-(4-(5-carbamoyl-2-methylphenyl)pyridin-2-yl)-4H-1,2,4-triazole-3-carboxamide] here?
**A.** 1000 to 10000 nM

**Q.** How did the IC50 turn out when Cc1ccc(OCC2(O)CC2)cc1-c1ccnc(NC(=O)c2nnc(Cc3ccccc3)[nH]2)c1 [Example 159, 5-benzyl-N-(4-(5-((1-hydroxycyclopropyl)methoxy)-2-methylphenyl)pyridin-2-yl)-4H-1,2,4-triazole-3-carboxamide] was run?
**A.** ≤ 100 nM

**Q.** Which IC50 does the source give for Cc1ccc(OCCCC(C)(C)O)cc1-c1ccnc(NC(=O)c2nnc(Cc3ccccc3)[nH]2)c1 [Example 160, 5-benzyl-N-(4-(5-((4-hydroxy-4-methylpentyl)oxy)-2-methylphenyl)pyridin-2-yl)-4H-1,2,4-triazole-3-carboxamide] here?
**A.** ≤ 100 nM

**Q.** How did the IC50 turn out when Cc1cc(C(C)(C)O)ccc1-c1ccnc(NC(=O)c2nnc(Cc3ccccc3)[nH]2)c1 [Example 161, 5-benzyl-N-(4-(4-(2-hydroxypropan-2-yl)-2-methylphenyl)pyridin-2-yl)-4H-1,2,4-triazole-3-carboxamide] was run?
**A.** 100 to 1000 nM

**Q.** CC(=O)c1ccc(-c2ccnc(NC(=O)c3nnc(Cc4ccccc4)[nH]3)c2)c(C)c1 [Example 162, N-(4-(4-acetyl-2-methylphenyl)pyridin-2-yl)-5-benzyl-4H-1,2,4-triazole-3-carboxamide] was tested. Which IC50 did it give?
**A.** 100 to 1000 nM

**Q.** How did the IC50 turn out when Cc1ccc(OCCCC2(O)CCCC2)cc1-c1ccnc(NC(=O)c2nnc(Cc3ccccc3)[nH]2)c1 [Example 163, 5-benzyl-N-(4-(5-(3-(1-hydroxycyclopentyl)propoxy)-2-methylphenyl)pyridin-2-yl)-4H-1,2,4-triazole-3-carboxamide] was run?
**A.** ≤ 100 nM

**Q.** How did the IC50 turn out when Cc1ccc(OCCCC2(O)CCCCC2)cc1-c1ccnc(NC(=O)c2nnc(Cc3ccccc3)[nH]2)c1 [Example 164, 5-benzyl-N-(4-(5-(3-(1-hydroxycyclohexyl)propoxy)-2-methylphenyl)pyridin-2-yl)-4H-1,2,4-triazole-3-carboxamide] was run?
**A.** ≤ 100 nM

**Q.** For CCC(O)(CC)CCCOc1ccc(C)c(-c2ccnc(NC(=O)c3nnc(Cc4ccccc4)[nH]3)c2)c1 [Example 165], which IC50 is on record?
**A.** ≤ 100 nM

**Q.** For CCC(O)(CC)CCCOc1ccc(C)c(-c2ccnc(NC(=O)c3nnc(CC4CCCC4)[nH]3)c2)c1 [Example 166, 5-(cyclopentylmethyl)-N-(4-(5-((4-ethyl-4-hydroxyhexyl)oxy)-2-methylphenyl)pyridin-2-yl)-4H-1,2,4-triazole-3-carboxamide], which IC50 is on record?
**A.** ≤ 100 nM

**Q.** How did the IC50 turn out when Cc1ccc(OCCCCC(C)(C)O)cc1-c1ccnc(NC(=O)c2nnc(Cc3ccccc3)[nH]2)c1 [Example 167, 5-benzyl-N-(4-(5-((5-hydroxyl-5-methylhexyl)oxy)-2-methylphenyl)pyridin-2-yl)-4H-1,2,4-triazole-3-carboxamide] was run?
**A.** ≤ 100 nM

**Q.** With Cc1ccc(N(C)CCCC(C)(C)O)cc1-c1ccnc(NC(=O)c2nnc(Cc3ccccc3)[nH]2)c1 [Example 168] as the compound, how does the IC50 read?
**A.** 100 to 1000 nM

**Q.** Cc1ccc(OCCCC(C)(C)O)cc1-c1ccnc(NC(=O)c2nnc(CC(C)C)[nH]2)c1 [Example 169, N-(4-(5-((4-hydroxy-4-methylpentyl)oxy)-2-methylphenyl)pyridin-2-yl)-5-isobutyl-4H-1,2,4-triazole-3-carboxamide] was tested. Which IC50 did it give?
**A.** ≤ 100 nM

**Q.** How did the IC50 turn out when Cc1ccc(OCCCC(C)(C)O)cc1-c1ccnc(NC(=O)c2nnc(CC(C)(C)C)[nH]2)c1 [Example 170, N-(4-(5-((4-hydroxy-4-methylpentyl)oxy)-2-methylphenyl)pyridin-2-yl)-5-neopentyl-4H-1,2,4-triazole-3-carboxamide] was run?
**A.** 100 to 1000 nM

**Q.** Which IC50 does the source give for Cc1ccc(OCCCC(C)(C)O)cc1-c1ccnc(NC(=O)c2nnc(CC3CC3)[nH]2)c1 [Example 171, 5-(cyclopropylmethyl)-N-(4-(5-((4-hydroxy-4-methylpentyl)oxy)-2-methylphenyl)pyridin-2-yl)-4H-1,2,4-triazole-3-carboxamide] here?
**A.** 100 to 1000 nM

**Q.** How did the IC50 turn out when Cc1ccc(OCCCC(C)(C)O)cc1-c1ccnc(NC(=O)c2nnc(CC3CCC3)[nH]2)c1 [Example 172, 5-(cyclobutylmethyl)-N-(4-(5-((4-hydroxy-4-methylpentyl)oxy)-2-methylphenyl)pyridin-2-yl)-4H-1,2,4-triazole-3-carboxamide] was run?
**A.** ≤ 100 nM

**Q.** For Cc1ccc(OCCCC(C)(C)O)cc1-c1ccnc(NC(=O)c2nnc(CC3CCCC3)[nH]2)c1 [Example 173, 5-(cyclopentylmethyl)-N-(4-(5-((4-hydroxy-4-methylpentyl)oxy)-2-methylphenyl)pyridin-2-yl)-4H-1,2,4-triazole-3-carboxamide], which IC50 is on record?
**A.** ≤ 100 nM

**Q.** Which IC50 does the source give for Cc1ccc(OCCCC(C)(C)O)cc1-c1ccnc(NC(=O)c2nnc(CC3CCCC3)o2)c1 [Example 174, 5-(cyclopentylmethyl)-N-(4-(5-((4-hydroxy-4-methylpentyl)oxy)-2-methylphenyl)pyridin-2-yl)-4H-1,3,4-oxadiazole-2-carboxamide] here?
**A.** 100 to 1000 nM

**Q.** How did the IC50 turn out when Cc1ccc(OCCCC(C)(C)O)cc1-c1ccnc(NC(=O)c2nnc(CC3CCCCC3)[nH]2)c1 [Example 175, 5-(cyclohexylmethyl)-N-(4-(5-((4-hydroxy-4-methylpentyl)oxy)-2-methylphenyl)pyridin-2-yl)-4H-1,2,4-triazole-3-carboxamide] was run?
**A.** ≤ 100 nM

**Q.** For Cc1ccc(OCCCC(C)(C)O)cc1-c1ccnc(NC(=O)c2nnc(CCC3CCCC3)[nH]2)c1 [Example 176, 5-(2-cyclopentylethyl)-N-(4-(5-((4-hydroxy-4-methylpentyl)oxy)-2-methylphenyl)pyridin-2-yl)-4H-1,2,4-triazole-3-carboxamide], which IC50 is on record?
**A.** ≤ 100 nM

**Q.** How did the IC50 turn out when Cc1ccc(OCCCC(C)(C)O)cc1-c1ccnc(NC(=O)c2nnc(CC3CCOCC3)[nH]2)c1 [Example 177, N-(4-(5-((4-hydroxy-4-methylpentyl)oxy)-2-methylphenyl)pyridin-2-yl)-5-((tetrahydro-2H-pyran-4-yl)methyl)-4H-1,2,4-triazole-3-carboxamide] was run?
**A.** ≤ 100 nM

**Q.** For Cc1ccc(OCCCC(C)(C)O)cc1-c1ccnc(NC(=O)c2nnc(CC3CCC(F)(F)CC3)[nH]2)c1 [Example 178, 5-((4,4-difluorocyclohexyl)methyl)-N-(4-(5-((4-hydroxy-4-methylpentyl)oxy)-2-methylphenyl)pyridin-2-yl)-4H-1,2,4-triazole-3-carboxamide], which IC50 is on record?
**A.** ≤ 100 nM

**Q.** Cc1ccc(OCCCC(C)(C)O)cc1-c1ccnc(NC(=O)c2nnc(CC3CC4CCC3C4)[nH]2)c1 (centres unmarked) [Example 179, 5-(bicyclo[2.2.1]heptan-2-ylmethyl)-N-(4-(5-((4-hydroxy-4-methylpentyl)oxy)-2-methylphenyl)pyridin-2-yl)-4H-1,2,4-triazole-3-carboxamide] was tested. Which IC50 did it give?
**A.** ≤ 100 nM

**Q.** For Cc1ccc(OCCCC(C)(C)O)cc1-c1ccnc(NC(=O)c2nnc(CC34CC5CC(CC(C5)C3)C4)[nH]2)c1 [Example 180, 5-(adamantan-1-ylmethyl)-N-(4-(5-((4-hydroxy-4-methylpentyl)oxy)-2-methylphenyl)pyridin-2-yl)-4H-1,2,4-triazole-3-carboxamide], which IC50 is on record?
**A.** ≤ 100 nM

**Q.** Which IC50 does the source give for Cc1ccc(OCCCC(C)(C)O)cc1-c1ccnc(NC(=O)c2nnc(CN3CCOCC3)[nH]2)c1 [Example 181, N-(4-(5-((4-hydroxy-4-methylpentyl)oxy)-2-methylphenyl)pyridin-2-yl)-5-(morpholinomethyl)-4H-1,2,4-triazole-3-carboxamide] here?
**A.** 1000 to 10000 nM

**Q.** For Cc1ccc(OCCCC(C)(C)O)cc1-c1ccnc(NC(=O)c2nnc(CCc3ccccc3)[nH]2)c1 [Example 182, N-(4-(5-((4-hydroxy-4-methylpentyl)oxy)-2-methylphenyl)pyridin-2-yl)-5-phenethyl-4H-1,2,4-triazole-3-carboxamide], which IC50 is on record?
**A.** 100 to 1000 nM

**Q.** With Cc1ccc(OCCCC(C)(C)O)cc1-c1ccnc(NC(=O)c2nnc(Cc3ccccc3F)[nH]2)c1 [Example 183, 5-(2-fluorobenzyl)-N-(4-(5-((4-hydroxy-4-methylpentyl)oxy)-2-methylphenyl)pyridin-2-yl)-4H-1,2,4-triazole-3-carboxamide] as the compound, how does the IC50 read?
**A.** ≤ 100 nM

**Q.** Cc1ccc(OCCCC(C)(C)O)cc1-c1ccnc(NC(=O)c2nnc(Cc3cccc(F)c3)[nH]2)c1 [Example 184, 5-(3-fluorobenzyl)-N-(4-(5-((4-hydroxy-4-methylpentyl)oxy)-2-methylphenyl)pyridin-2-yl)-4H-1,2,4-triazole-3-carboxamide] was tested. Which IC50 did it give?
**A.** ≤ 100 nM

**Q.** For Cc1ccc(OCCCC(C)(C)O)cc1-c1ccnc(NC(=O)c2nnc(Cc3cccc(Cl)c3)[nH]2)c1 [Example 185, 5-(3-chlorobenzyl)-N-(4-(5-((4-hydroxy-4-methylpentyl)oxy)-2-methylphenyl)pyridin-2-yl)-4H-1,2,4-triazole-3-carboxamide], which IC50 is on record?
**A.** ≤ 100 nM

**Q.** For COc1cccc(Cc2nnc(C(=O)Nc3cc(-c4cc(OCCCC(C)(C)O)ccc4C)ccn3)[nH]2)c1 [Example 186, 5-(3-methoxybenzyl)-N-(4-(5-((4-hydroxy-4-methylpentyl)oxy)-2-methylphenyl)pyridin-2-yl)-4H-1,2,4-triazole-3-carboxamide], which IC50 is on record?
**A.** 100 to 1000 nM

**Q.** Which IC50 does the source give for Cc1ccc(OCCCC(C)(C)O)cc1-c1ccnc(NC(=O)c2nnc(Cc3cccc(C#N)c3)[nH]2)c1 [Example 187, 5-(3-cyanobenzyl)-N-(4-(5-((4-hydroxy-4-methylpentyl)oxy)-2-methylphenyl)pyridin-2-yl)-4H-1,2,4-triazole-3-carboxamide] here?
**A.** ≤ 100 nM
